Source: publication PMC3940203, “Elements in nucleotide sensing and hydrolysis of the AAA+ disaggregation machine ClpB: a structure-based mechanistic dissection of a molecular motor” (Acta Crystallographica Section D: Biological Crystallography, 2014)
Blank lines part the entries; values can stand above or below the compound they belong to.

What was measured:
[1] = molecular target: T1, ClpB NBD2 (Thermus thermophilus, UniProt Q9RA63, R806A); assay: stopped-flow FRET, direct mixing and displacement, global fit; Kd = koff/kon; type: binding; conditions: 50 mM Tris-HCl pH 7.5, 200 mM KCl, 5 mM MgCl2, 2 mM EDTA, 25 °C; labelled compound
T1 sequence (Q9RA63 520-854 R806A): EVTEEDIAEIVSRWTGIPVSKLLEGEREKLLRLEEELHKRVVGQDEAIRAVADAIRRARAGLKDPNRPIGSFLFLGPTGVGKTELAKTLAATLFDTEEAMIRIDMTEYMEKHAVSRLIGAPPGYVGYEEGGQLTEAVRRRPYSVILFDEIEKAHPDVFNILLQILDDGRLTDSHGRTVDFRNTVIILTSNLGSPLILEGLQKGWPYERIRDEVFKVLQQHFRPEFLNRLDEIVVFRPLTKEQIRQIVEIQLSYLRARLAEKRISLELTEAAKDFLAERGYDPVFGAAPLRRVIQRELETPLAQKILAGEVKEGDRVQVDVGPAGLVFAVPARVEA
Source text: (§1) stopped-flow FRET, direct mixing and displacement, global fit; Kd = koff/kon on ClpB NBD2

[2] = molecular target: T1, ClpB NBD2; assay: stopped-flow FRET, competition and displacement with MANT-dADP, global fit; Kd = koff/kon; conditions: 50 mM Tris-HCl pH 7.5, 200 mM KCl, 5 mM MgCl2, 2 mM EDTA, 25 °C; ATP-regenerating system (pyruvate kinase, phosphoenolpyruvate); read-out: Nucleotide binding / K d
Source text: (§2) stopped-flow FRET, competition and displacement with MANT-dADP, global fit; Kd = koff/kon on ClpB NBD2

[3] = molecular target: T2, ClpB NBD2 (Thermus thermophilus, UniProt Q9RA63, R621Q); assay: as above; conditions: 50 mM Tris-HCl pH 7.5, 200 mM KCl, 5 mM MgCl2, 2 mM EDTA, 25 °C; ATP-regenerating system (pyruvate kinase, phosphoenolpyruvate); read-out: Nucleotide binding / K d
T2 sequence (Q9RA63 520-854 R621Q): as the sequence (Q9RA63 520-854 R806A) above, with R102Q, A287R counted along it
Source text: as §2

[4] = molecular target: T3, ClpB NBD2 (Thermus thermophilus, UniProt Q9RA63, N709A); assay: as above; conditions: 50 mM Tris-HCl pH 7.5, 200 mM KCl, 5 mM MgCl2, 2 mM EDTA, 25 °C; ATP-regenerating system (pyruvate kinase, phosphoenolpyruvate); read-out: Nucleotide binding / K d
T3 sequence (Q9RA63 520-854 N709A): as the sequence (Q9RA63 520-854 R806A) above, with N190A, A287R counted along it
Source text: as §2

[5] = molecular target: T4, ClpB NBD2 (Thermus thermophilus, UniProt Q9RA63); assay: X-ray crystal structure, […] Å; type: binding; conditions: co-crystal with 2 mM AMPPCP, pH 7.0; nucleotide site of NBD2, no Mg2+ bound
T4 sequence (Q9RA63 520-854): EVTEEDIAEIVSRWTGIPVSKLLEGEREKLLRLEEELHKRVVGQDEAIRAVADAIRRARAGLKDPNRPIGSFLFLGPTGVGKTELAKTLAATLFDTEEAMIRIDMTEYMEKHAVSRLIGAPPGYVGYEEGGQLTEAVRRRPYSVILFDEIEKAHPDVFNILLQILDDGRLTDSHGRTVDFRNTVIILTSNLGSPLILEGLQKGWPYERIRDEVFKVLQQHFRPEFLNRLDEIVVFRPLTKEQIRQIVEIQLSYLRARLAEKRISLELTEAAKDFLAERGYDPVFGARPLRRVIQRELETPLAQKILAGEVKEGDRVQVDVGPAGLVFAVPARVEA

[6] = molecular target: T1, ClpB NBD2; assay: stopped-flow FRET, displacement and competition with MANT-dADP, global fit; Kd = koff/kon; conditions: 50 mM Tris-HCl pH 7.5, 200 mM KCl, 5 mM MgCl2, 2 mM EDTA, 25 °C; read-out: Nucleotide binding / K d
Source text: (§3) stopped-flow FRET, displacement and competition with MANT-dADP, global fit; Kd = koff/kon on ClpB NBD2

[7] = molecular target: T2, ClpB NBD2; assay: as above; conditions: 50 mM Tris-HCl pH 7.5, 200 mM KCl, 5 mM MgCl2, 2 mM EDTA, 25 °C; read-out: Nucleotide binding / K d
Source text: as §3

[8] = molecular target: T3, ClpB NBD2; assay: as above; type: binding; conditions: 50 mM Tris-HCl pH 7.5, 200 mM KCl, 5 mM MgCl2, 2 mM EDTA, 25 °C
Source text: as §3

[9] = molecular target: T4, ClpB NBD2; assay: X-ray crystal structure, […] Å; type: binding; conditions: co-crystal with 2 mM ADP, pH 7.0; nucleotide site of NBD2, no Mg2+ bound
[10] = molecular target: T2, ClpB NBD2; assay: stopped-flow FRET, direct mixing and displacement, global fit; Kd = koff/kon; type: binding; conditions: 50 mM Tris-HCl pH 7.5, 200 mM KCl, 5 mM MgCl2, 2 mM EDTA, 25 °C; labelled compound
Source text: as §1

[11] = molecular target: T3, ClpB NBD2; assay: as above; type: binding; conditions: 50 mM Tris-HCl pH 7.5, 200 mM KCl, 5 mM MgCl2, 2 mM EDTA, 25 °C; labelled compound
Source text: as §1

SMILES: Nc1ncnc2c1ncn2[C@@H]1O[C@H](COP(=O)(O)OP(=O)(O)CP(=O)(O)O)[C@@H](O)[C@H]1O [AMPPCP]
- X-ray crystal structure, 1.9 Å [5]: Wild-type ClpB NBD2 in complex with AMPPCP, PDB entry 4lj6

SMILES: Nc1ncnc2c1ncn2[C@@H]1O[C@H](COP(=O)(O)OP(=O)(O)O)[C@@H](O)[C@H]1O [ADP]
- Kd [6]: 3.8 ± 0.06 µM
- Kd [7]: 1.5 ± 0.02 µM
- Nucleotide binding / K d (μM) [8]: 0.43 ± 8 × 10^−3 µM
- X-ray crystal structure, 2.4 Å [9]: Wild-type ClpB NBD2 in complex with ADP, PDB entry 4lj5

SMILES: CNc1ccccc1C(=O)O[C@H]1C[C@H](n2cnc3c(N)ncnc32)O[C@@H]1COP(=O)(O)OP(=O)(O)O [MANT-dADP]
- Nucleotide binding / K d (μM) [1]: 0.027 ± 1 × 10^−4 µM
- Nucleotide binding / K d (μM) [10]: 0.0068 ± 8 × 10^−5 µM
- Nucleotide binding / K d (μM) [11]: 0.0024 ± 3 × 10^−5 µM

Next, values leading:

- Nucleotide binding / K d (μM) [1]: 0.29 ± 2 × 10^−3 µM
SMILES: CNc1ccccc1C(=O)O[C@H]1C[C@H](n2cnc3c(N)ncnc32)O[C@@H]1COP(=O)(O)OP(=O)(O)OP(=O)(O)O [MANT-dATP]

- Kd [2]: 84 ± 4 µM
- Kd [3]: 55 ± 2 µM
- Kd [4]: 74 ± 3 µM
SMILES: Nc1ncnc2c1ncn2[C@@H]1O[C@H](COP(=O)(O)OP(=O)(O)OP(=O)(O)O)[C@@H](O)[C@H]1O [ATP]
